From PMC10388327, “Dual Piperidine-Based Histamine H3 and Sigma-1 Receptor Ligands in the Treatment of Nociceptive and Neuropathic Pain” (Journal of Medicinal Chemistry, 2023)
Structures can show the parent of a compound that is named as a salt. Where two headings read alike, the source gives them in different places.

Experiments:
sigma-1 receptor (σ1R) [1] = biological target: T1, sigma-1 receptor (σ1R) (Cavia porcellus, UniProt Q60492); assay: σ1R radioligand binding ([3H](+)-pentazocine); set-up: species or system guinea pig; conditions: read-out: σ1R Ki [nM] x̄ [CI 95%]; mean [CI 95%]
T1 construct: The thawed membrane preparation of the guinea pig brain cortex was incubated; from tissue; host or cells: male Dunkin-Hartley guinea pig brain cortex membranes

sigma-2 receptor (σ2R) = biological target: T2, sigma-2 receptor (σ2R) (Rattus norvegicus, UniProt Q5U3Y7); assay: σ2R radioligand binding ([3H]DTG); conditions: read-out: σ2R Ki [nM] x̄ [CI 95%]; mean [CI 95%]
T2 construct: The thawed membrane preparation of rat liver was incubated; from tissue; host or cells: Sprague-Dawley rat liver membranes
T2 sequence (Q5U3Y7 1-176): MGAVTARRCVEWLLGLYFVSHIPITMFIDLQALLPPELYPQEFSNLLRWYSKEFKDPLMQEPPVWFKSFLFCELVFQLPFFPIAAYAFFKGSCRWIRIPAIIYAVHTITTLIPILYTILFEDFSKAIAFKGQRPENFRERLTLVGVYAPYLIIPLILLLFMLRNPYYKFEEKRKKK

[2] = biological target: T3, human recombinant histamine H3R (Homo sapiens, UniProt Q9Y5N1); conditions: read-out: hH3R Ki [nM] x̄ [CI 95%]; mean [CI 95%]; recalculated from published data; cited from earlier work
T3 construct: expressed in transfected cells

[3] = observation during crystallization
[4] = pKa determination by potentiometric titration; type: physicochemical; conditions: for pKa: aqueous solution
Experimental: In addition, we tested the amino alcohol fragments of these compounds to carefully monitor the influence of individual protonated nitrogen atoms on the obtained pKa values (Figure 4). […] Based on a previously modified potentiometric procedure,[27],[28] a series of titrations were performed, and the pKa values were determined using the Kostrowicki and Liwo algorithm.[29],[30] […] That explains the surprising result of free base crystallization attempts where iodide salt was obtained instead of the neutral form. On the other hand, in the same environment, KSK94 exists in two forms: the monoprotonated form [HL^+] (20.56%) and the free ligand [L] (77.72%, Figure 5). […] KSK68 can be characterized as a basic ligand with pKa1 = 4.9 (pyridine N) and pKa2 = 8.4 (piperidine N). The pKa values are consistent with those determined by the same procedure for the corresponding amino alcohol 3-(4-(pyridin-4-yl)piperidin-1-yl)propan-1-ol (Figure 4). […] A similarly low pKa2 value for the N7 piperazine nitrogen atom was also determined for the corresponding amino alcohol 3-(4-(pyridin-4-yl)piperazin-1-yl)propan-1-ol (Figure 4), which is in agreement with the value obtained for 1-phenyl-4-methyl piperazine reported in the literature.[31] […] The lowest value was determined for 4-nitrophenyl, and the highest was for 2-methylphenyl derivatives.[32]
The potentiometric microtitration was performed in a thermostated 20 mL cell using a CerkoLab microtitration unit fitted with a pH electrode (Hydromet ERH-13-6). The electrode was calibrated with the use of buffer solutions: pH = 4.00, 7.00, and 10.00. Titrant T (0.1 M KOH) was standardized according to the general analytical procedure and protected from carbon dioxide. Double distilled water with a conductivity of about 0.18 mS/cm was used to prepare all aqueous solutions. DMSO (HPLC grade, 99.5%) was supplied by Sigma Aldrich. The concentration of the titrant solution (D) was 0.0025–0.005 M. The solubilization procedure was follows: The appropriate amount of KSK compound was dissolved in 1 mL 0.1 M HCl and 1 mL DMSO to prepare a 25 mL stock solution. The developed solubilization system can be recommended for poorly soluble derivatives. The analytical procedure was a follows: volume V0 = 4.5 mL of titrant D was titrated with 0.1 M titrant T using the CerkoLab System equipped with a 5 mL syringe pump.

H3R = biological target: H3R; set-up: method as in PMID 30359639; conditions: Figure 1, compounds evaluated in clinical trials; cited from earlier work
mice [5] = assay: loperamide-induced antinociception (paw pressure, struggle response latency); type: in vivo, Female CD1 mice
[6] = parallel artificial membrane permeability assay (PAMPA); type: in vitro ADME; conditions: 100 μM in PBS pH 7.4, RT, read-out: Pe (permeability coefficient)
sigma-1 receptor (σ1R) [7] = assay: σ1R radioligand binding ([3H](+)-pentazocine); set-up: species or system guinea pig; conditions: ratio of σ2R Ki to σ1R Ki
mice [8] = assay: formalin test; type: in vivo; conditions: for ED50: Mus musculus, ip
Source text: The formalin test is one of the most useful screening models for testing potentially clinically relevant antinociceptive molecules because of its ease of administration, standardization, and validation with reference drugs.[50] The subcutaneous injection of formalin results in a focal injury that stimulates and then damages sensory endings. Two distinct phases of nociceptive response are associated with the immediate activation of nociceptors and sensitization of spinal reflex circuits during phase I and II responses, respectively.[51]
The procedure used was essentially the same as that described previously.[86],[87] Briefly, 20 μL of 1.5% formalin solution was injected intraplantarly (i.pl.) into the mice right hind paw using a 26-gauge needle. […] The total time (in seconds) spent on licking the injected paw during periods of 0–5 min (early phase, neurogenic) and 15–30 min (late phase, inflammatory) was measured and was considered as an indicator of nociceptive behavior. Before formalin injection, different groups of mice were treated i.p. with the vehicle (10 mL/kg, negative control) and the varying doses of 12 (5, 10, 15, and 30 mg/kg).

mice [9] = assay: spontaneous locomotor activity; type: in vivo; conditions: 15 mg/kg i.p.
Experimental: The high sedative activity of analgesics is considered an undesirable property, which may lead to an incorrect or ambiguous interpretation of the in vivo results. Moreover, it may limit the potential clinical application of new drug candidates.
This test was carried out according to the procedure described elsewhere.[84] The animals were injected (i.p.) with 12 at doses of 5, 15, and 30 mg/kg and placed in the activity cages individually (30 min before the experiment). The number of light-beam crossings was counted in each group during the next 30 min in 10 min intervals.

mice [10] = assay: motor coordination in the rotarod test; type: in vivo; conditions: 15 mg/kg i.p.; 6, 18 and 24 rpm
Source text: The neurotoxicity of the new compounds can result in impaired motor functions of the experimental animals, which may subsequently cause false interpretation of the results of in vivo tests. Understandably, neurotoxicity is also the frequent reason for eliminating the tested compound from further studies. To minimize that risk, we investigated the influence of our lead structures on motor coordination in the rotarod test, which is the classical test used for assessing motor coordination and balance in rodents. It provides a quick and simple estimation of neuromuscular coordination. […] The time spent on the rotarod apparatus was 60 s for each control mouse.
The test was carried out on the semiautomatic rotarod apparatus (Rotarod apparatus Panlab/Harvard Apparatus, LE 8200, Spain) according to the method previously described in the literature.[85] The mice were trained for 3 days on the rod rotating at a constant speed of 18 rotations per minute (rpm). During each training session, the animals were placed on the rod for 3 min with an unlimited number of trials. On the test day (24 h after the final training trial), 30 min before the rotarod test, the mice were pretreated (i.p.) with the test compound (15 mg/kg). Then, the animals were tested on the rotarod revolving at 6, 18, and then 24 rpm. Motor impairments, defined as the inability to remain on the rotating rod for 1 min, were measured at each speed.

[11] = biological target: T4, human histamine H4 receptor (hH4R) (Homo sapiens, UniProt Q9H3N8); assay: hH4R radioligand binding ([3H]UR-PI294); conditions: read-out: hH4R (Ki [nM] x̅ [CI 95%]); HEK293T cells; n = 3, triplicate
T4 construct: SP (signal peptide) (N); FLAG (N); expressed in transfected cells
Experimental: (§1) To check the selectivity profile of our lead structures, radioligand binding studies at other histamine receptor subtypes were carried out. […] Obtained results clearly indicate the high selectivity of the tested derivatives toward human H3R (Table 3).
(§2) Compounds (as oxalate salts) were tested in H3R in vitro binding studies using the methods described previously.[21]−[23] […] Radioligand binding experiments at the H1R, H2R, and H4R were performed as previously described in Rosier et al.[65] and Bartole et al.[66] […] Data represent mean values ± CI from three independent experiments, each performed in triplicate. The normalized competition binding curves were then fitted with a four-parameter logistic fit yielding IC50 values using the Prism 8.4.3 software (GraphPad, San Diego, CA). The Ki values were estimated from the Cheng–Prusoff equation.[69]

[12] = biological target: T3, human recombinant histamine H3R; assay: hH3R radioligand binding ([3H]Nα-methylhistamine depletion assay); conditions: read-out: hH3R Ki [nM] x̄ [CI 95%]; mean [CI 95%]; HEK-293 cells
[13] = biological target: T5, human histamine H1 receptor (hH1R) (Homo sapiens, UniProt P35367); assay: hH1R radioligand binding ([3H]mepyramine); conditions: read-out: hH1R (Ki [nM] x̅ [CI 95%]); HEK293T cells; n = 3, triplicate
T5 construct: SP (signal peptide) (N); FLAG (N); expressed in transfected cells
Experimental: as §1, §2

[14] = biological target: T6, human histamine H2 receptor (hH2R) (Homo sapiens, UniProt P25021); assay: hH2R radioligand binding ([3H]UR-DE257); conditions: HEK293T cells, n = 3, triplicate
T6 construct: SP (signal peptide) (N); FLAG (N); expressed in transfected cells
Experimental: as §1, §2

[15] = Figure 5, species distribution from titration curves
[16] = experimental, potentiometric titration
[17] = 0–5 min after formalin, read-out: ED50, formalin test phase I (acute phase)
[18] = 15–30 min after formalin, read-out: ED50, formalin test phase II (late phase)

T3 sequence (Q9Y5N1 whole entry): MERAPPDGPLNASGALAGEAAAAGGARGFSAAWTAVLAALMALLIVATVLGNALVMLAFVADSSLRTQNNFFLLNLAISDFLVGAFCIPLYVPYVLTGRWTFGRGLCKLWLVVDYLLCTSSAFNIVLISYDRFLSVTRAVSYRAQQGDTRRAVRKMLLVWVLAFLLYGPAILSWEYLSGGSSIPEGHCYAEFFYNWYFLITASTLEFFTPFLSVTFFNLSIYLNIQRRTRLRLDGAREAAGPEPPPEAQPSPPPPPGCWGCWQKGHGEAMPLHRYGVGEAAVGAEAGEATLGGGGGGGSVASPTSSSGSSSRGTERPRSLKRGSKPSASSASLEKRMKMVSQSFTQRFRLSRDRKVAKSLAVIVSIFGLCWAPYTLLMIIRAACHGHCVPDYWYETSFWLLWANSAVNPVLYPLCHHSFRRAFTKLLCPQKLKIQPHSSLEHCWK
T1 sequence (Q60492 whole entry): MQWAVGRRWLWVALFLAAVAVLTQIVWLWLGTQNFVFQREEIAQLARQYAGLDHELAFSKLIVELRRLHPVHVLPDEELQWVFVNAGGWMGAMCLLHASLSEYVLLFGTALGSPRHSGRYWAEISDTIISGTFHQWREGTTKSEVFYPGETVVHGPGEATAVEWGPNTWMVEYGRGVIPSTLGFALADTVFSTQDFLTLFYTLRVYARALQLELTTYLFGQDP
T5 sequence (P35367 whole entry): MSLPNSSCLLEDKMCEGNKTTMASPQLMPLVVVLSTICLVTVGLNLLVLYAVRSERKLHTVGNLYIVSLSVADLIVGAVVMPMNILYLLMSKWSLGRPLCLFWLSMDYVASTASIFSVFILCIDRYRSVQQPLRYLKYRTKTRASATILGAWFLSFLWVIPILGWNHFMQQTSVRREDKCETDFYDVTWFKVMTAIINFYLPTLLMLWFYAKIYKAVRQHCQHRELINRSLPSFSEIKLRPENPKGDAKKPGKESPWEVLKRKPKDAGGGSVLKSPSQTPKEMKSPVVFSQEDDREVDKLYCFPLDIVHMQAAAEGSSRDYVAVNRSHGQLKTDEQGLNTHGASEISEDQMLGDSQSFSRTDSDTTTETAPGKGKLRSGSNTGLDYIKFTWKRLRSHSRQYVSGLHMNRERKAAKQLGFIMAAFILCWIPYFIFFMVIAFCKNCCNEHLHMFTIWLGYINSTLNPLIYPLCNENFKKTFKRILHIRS
T6 sequence (P25021 whole entry): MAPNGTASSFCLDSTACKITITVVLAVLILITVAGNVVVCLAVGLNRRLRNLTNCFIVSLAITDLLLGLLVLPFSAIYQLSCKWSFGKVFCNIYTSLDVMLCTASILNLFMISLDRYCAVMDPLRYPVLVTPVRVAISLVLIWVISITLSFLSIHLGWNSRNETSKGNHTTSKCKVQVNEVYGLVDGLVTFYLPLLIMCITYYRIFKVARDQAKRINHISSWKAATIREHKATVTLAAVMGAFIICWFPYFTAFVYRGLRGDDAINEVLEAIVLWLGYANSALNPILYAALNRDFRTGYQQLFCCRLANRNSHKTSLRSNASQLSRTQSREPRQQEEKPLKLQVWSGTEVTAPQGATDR
T4 sequence (Q9H3N8 whole entry): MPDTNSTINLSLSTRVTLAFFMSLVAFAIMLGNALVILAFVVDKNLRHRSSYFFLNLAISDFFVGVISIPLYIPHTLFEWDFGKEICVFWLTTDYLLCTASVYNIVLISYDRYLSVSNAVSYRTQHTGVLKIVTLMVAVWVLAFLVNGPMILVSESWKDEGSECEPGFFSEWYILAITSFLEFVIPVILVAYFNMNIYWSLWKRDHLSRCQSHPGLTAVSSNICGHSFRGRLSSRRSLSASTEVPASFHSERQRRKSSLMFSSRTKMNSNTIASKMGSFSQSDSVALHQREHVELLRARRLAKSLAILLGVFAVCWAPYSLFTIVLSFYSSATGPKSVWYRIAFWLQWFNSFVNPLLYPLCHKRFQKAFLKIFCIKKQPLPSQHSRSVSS

For `c1ccc(-c2ccc(OCCCCCCN3CCCCC3)cc2)cc1` [Compound 11, 1-(6-([1,1′-Biphenyl]-4-yloxy)hexyl)piperidine Oxalate], the Ki (sigma-1 receptor (σ1R) [1]) is given as 118 nM, the Ki (sigma-2 receptor (σ2R)) is given as 46 nM and the Ki [2] is given as 88.9 nM.

For `O=C(c1ccc(OCCCN2CCC(c3ccncc3)CC2)cc1)C1CC1` [KSK68], the solubility in water [3] was “more soluble in H2O than KSK67”, the “pK of equilibrium H2L+2 = H+ + HL+” value [4, 15] was 4.94 and the “pK of equilibrium HL+ = H+ + L0” value [4, 15] was 8.38. For the same compound, the “monoprotonated form [HL+]” value ([4]; aqueous solution at physiological pH) was “approximately 90%”, the pKa ([4]; experimental, potentiometric titration, read-out: pKa1) was 4.9 and the pKa ([4]; experimental, potentiometric titration, read-out: pKa2) was 8.4. For the same compound, the pKa1 [4, 16] was 4.94 and the pKa2 [4, 16] was 8.38.

For `c1ccc(-c2ccc(OCCCCCN3CCCCC3)cc2)cc1` [Compound 10, 1-(5-([1,1′-Biphenyl]-4-yloxy)pentyl)piperidine Oxalate], the Ki (sigma-1 receptor (σ1R) [1]) is given as 140 nM, the Ki (sigma-2 receptor (σ2R)) is given as 19 nM and the Ki [2] is given as 21.7 nM.

For `c1cc(OCCCN2CCCCC2)ccc1CN1CCCCC1` [JNJ-5207852], the Ki (H3R) is listed as 0.3 nM.

For `Cc1cc(OCCN2CCOCC2)nn1-c1ccc2ccccc2c1` [Compound S1RA, 4-[2-[[5-methyl-1-(2-naphthalenyl)1H-pyraol-3-yl]oxy]ethyl]morpholine hydrochloride], the “in vivo σ1 receptor functional profile” value (mice [5]; concluded from PRE-084 reversal) was “σ1 receptor antagonists”, the “effect on loperamide-induced antinociception” value (mice [5]; i.pl. with loperamide 4 mg/kg s.c., injected paw) was “significantly and dose-dependently (50–100 μg) increased the antinociceptive effect induced by loperamide” and the “effect alone on struggle response latency” value (mice [5]; i.pl., S1RA 100 μg, 12 25 μg, 450 g pressure) was “did not change the response to the mechanical stimulus”. For the same compound, the Ki (H3R) was over 10000 nM and the Papp at 5 h, 100 µM [6] was 5.26 ×10⁻⁶ cm/s.

Work on `c1ccc(-c2ccc(OCCCN3CCCCCC3)cc2)cc1` [Compound 3, 1-(3-([1,1′-Biphenyl]-4-yloxy)propyl)azepane Oxalate] yielded a Ki (sigma-1 receptor (σ1R) [1]) of 1.9 nM, a σ2/σ1 ratio (sigma-1 receptor (σ1R) [7]) of 13.2 and a Ki (sigma-2 receptor (σ2R)) of 25 nM. The ED50 (mice [8]; [17]) was 14.2 mg/kg, the ED50 (mice [8]; [18]) was 13.3 mg/kg and the “influence on spontaneous locomotor activity (sedative effect)” value (mice [9]) was “high and significant sedative effects”. The “influence on motor coordination, time on rotarod” value (mice [10]) was “significantly impaired the motor coordination of mice”, the Papp at 5 h, 100 µM [6] was 6.57 ×10⁻⁶ cm/s and the Ki [11] was over 10000 nM. The Ki [12] was 4.3 nM, the Ki [13] was 7620 nM and the Ki ([14]; read-out: hH2R (Ki [nM] x̅ [CI 95%])) was over 10000 nM.

`c1ccc(Nc2ccc(OCCCN3CCCCC3)cc2)cc1` [Compound 7, N-Phenyl-4-(3-(piperidin-1-yl)propoxy)aniline Oxalate] gave a Ki (sigma-1 receptor (σ1R) [1]) of 4.8 nM, a σ2/σ1 ratio (sigma-1 receptor (σ1R) [7]) of 24.2 and a Ki (sigma-2 receptor (σ2R)) of 116 nM. The ED50 (mice [8]; [17]) was 11.9 mg/kg, the ED50 (mice [8]; [18]) was 11.7 mg/kg and the “ED50, formalin test phase I (acute phase)” value (mice [8]; i.p., 0–5 min after formalin) was 11.95 mg/kg. For the same compound, the “ED50, formalin test phase II (late phase)” value (mice [8]; i.p., 15–30 min after formalin) was 11.71 mg/kg, the “influence on spontaneous locomotor activity (sedative effect)” value (mice [9]) was “high and significant sedative effects” and the “influence on motor coordination, time on rotarod” value (mice [10]) was “significantly decreased the time spent on the rod at 18 and 24 rpm”. It also gave a Papp at 5 h, 100 µM [6] of 10.6 ×10⁻⁶ cm/s, a Ki [11] of over 10000 nM and a Ki [12] of 5.2 nM. For the same compound, the Ki [13] was over 10000 nM and the Ki [14] was over 10000 nM.
